The record followed here is patent US4871766A, “Oil-in-water pesticidal emulsion” (priority 1986, dated 1989).

Series [1] can be described thus: Solubility of active ingredient in hydrocarbon at 0° C. In kind it is physicochemical.
Series [2] in a line: Behaviour of active ingredient on storage at 0° C. The following applies: stored at 0° C. for a long time. In kind it is physicochemical.

Bounds are passed on as bounds.

Turning to `CCC(C)c1ccccc1OC(=O)NC` (stereo not drawn) [active ingredient (a), 2-Sec-butylphenyl N--methylcarbamate], in series [1] (hydrocarbon (5)), the “solubility in the hydrocarbon (5)” value is recorded as no less than 50 wt. %.

With `CC1(C)C(C=C(Cl)Cl)C1C(=O)OC(C#N)c1cccc(Oc2ccccc2)c1` (stereo not drawn) [active ingredient (b), α-Cyano-3-phenoxybenzyl 3-(2,2-dichlorovinyl)-2,2-dimethylcyclopropanecarboxylate], the “crystallization of the active ingredient on storage” value in series [2] was “crystallizes in part”.

In the case of `CC1(C)C(C=C(Cl)Cl)C1C(=O)OCc1cccc(Oc2ccccc2)c1` (stereo not drawn) [active ingredient (d), 3-Phenoxybenzyl 3-(2,2-dichlorovinyl)-2,2-dimethylcyclopropanecarboxylate], the “solubility in the hydrocarbon (4)” value in series [1] (hydrocarbon (4)) is on record as no less than 50 wt. %. Regarding `CC1(C)C(C(=O)OC(C#N)c2cccc(Oc3ccccc3)c2)C1(C)C` (stereo not drawn) [active ingredient (e), α-Cyano-3-phenoxybenzyl 2,2,3,3-tetramethylcyclopropanecarboxylate], the “solubility in the hydrocarbon (3)” value in series [1] is reported as no less than 50 wt. %. Consider `CC(C)C(C(=O)OC(C#N)c1cccc(Oc2ccccc2)c1)c1ccc(Cl)cc1` (stereo not drawn) [active ingredient (f), α-Cyano-3-phenoxybenzyl 2-(4-chlorophenyl)-3-methylbutyrate], for which, in series [1], the “solubility in the hydrocarbon (3)” value was no less than 50 wt. %.

On to `CC(COc1ccc(Oc2ccccc2)cc1)Oc1ccccn1` (stereo not drawn) [active ingredient (h), 2-{1-Methyl-2-(4-phenoxyphenoxy)ethoxy}pyridine], for which the “solubility in the hydrocarbon (6)” value in series [1] (hydrocarbon (6)) was 10 wt. %.
